{
  "source": "patent US12569170B2",
  "about": "“Paramagnetic sodium NMR macrocyclic-based biosensors, and associated methods” (Yale University, priority 2021, dated 2026)",
  "key": {"[1]": {"assay": "Concentration effects of Dotarem and Gadavist on ^23Na spectra, concentric tubes phantom", "format": "physicochemical", "settings": "20 mM, 10 mM, 5 mM in outer compartment, tubes parallel to the magnetic field", "method": "Spectra are shown for 20 mM, 10 mM, and 5 mM, where 0 ppm corresponds to the natural, unshifted ^23Na resonance of the inner compartment to which no agent was added."}, "[2]": {"assay": "Comparison of ^23Na shiftability and broadening potential of DOTP agents", "format": "physicochemical"}, "[3]": {"tested_on": "U87-bearing rat brain", "assay": "In vivo ^23Na-MRSI line broadening in glioma models", "description": "FIGS. 10C-10F illustrates images according to certain embodiments of the disclosure. […] However, the ^23Na linewidth analysis by TmDOTP^5− is confounded by its high ^23Na shiftability. This peak separation in vivo overestimates the full-width at half-maximum (FWHM) calculations and exaggerates the measured ^23Na linewidths.\nSlice 1 is most superficial, and slice 3 is the deepest. The tumor outline is depicted in white in all columns.\nThis establishes GdDOTP^5−-induced ^23Na linewidth broadening as a potential surrogate marker for the altered Na^+ biodistribution within tumors. Thus, in brain tumor models, TmDOTP^5− with ^23Na-NMR can separate Na^+ in intracellular, blood, and interstitial pools, while GdDOTP^5− can distinguish Na^+ within intracellular and extracellular (i.e., blood and interstitial) pools.\nBecause the majority of the present studies looked at ^23Na chemical shift, the line broadening capabilities of these paramagnetic agents were also interrogated. […] This is due to the high magnetic moment of Gd^3+ which contributes to some degree of anisotropy to the paramagnetic susceptibility. […] Crucially, this family of paramagnetic agents has allowed to insightful probing of the tumor microenvironment and drawing of significant conclusions about tumor aggressiveness based on spectroscopic analysis."}, "[4]": {"assay": "Bulk magnetic susceptibility (BMS) contribution to chemical shift in phantoms", "format": "physicochemical", "settings": "phantoms", "description": "Upon translation of the present in vitro results to in vivo situations, certain confounding factors must be addressed. In the interstitial space, there are additional cations such as calcium (Ca^2+), magnesium (Mg^2+) and K^+ which will also bind to anionic contrast agents like TmDOTP^5−. However, physiologically their concentrations are low compared to Na^+. […] Additionally, there is a contribution to the chemical shift from bulk magnetic susceptibility (BMS) changes brought about by TmDOTP^5− in addition to the hyperfine shifts induced by interactions with Na^+. Experiments were performed on different DOTP^8− salts in phantoms parallel and perpendicular to the main magnetic field B0, and also spherical phantoms in which there was no BMS contribution. Only a small portion (˜2%) of the total chemical shift for TmDOTP^5− was due to BMS arising due to anisotropy of the paramagnetic susceptibility, and the remainder was the hyperfine shift."}, "[5]": {"tested_on": "U87 tumors", "assay": "Sorafenib treatment of U87 GBM models monitored by ^1H-MRI and ^23Na-MRSI", "format": "in vivo, rat", "settings": "for tumor growth: U87, 0.1 g/kg body weight daily oral gavage from day 9, imaged 6 days after, vs DMSO control", "method": "FIG. 9 depicts spatial distributions of compartmentalized ^23Na signals (Na^+b, Na^+e, Na^+i) as well as transendothelial (ΔNa^+end) and transmembrane (ΔNa^+mem) gradients in a pair of U87 tumors, one of which was treated with sorafenib, an anti-angiogenic tyrosine kinase inhibitor that targets vascular endothelial growth factor receptor (VEGFR) and platelet-derived growth factor receptor (PDGFR). Sorafenib dosage was 0.1 g/kg body weight, dissolved in dimethylsulfoxide (DMSO) for the treated animal, whereas the untreated control received an equivalent dose of pure DMSO. Daily treatment began on day 9 post-tumor-inoculation, and imaging was performed an additional 6 days after.\nHaving established the utility of ^23Na-MRSI in vivo with TmDOTP^5−, additional applications of Na^+ imaging were explored, such as monitoring therapeutic efficacy or using other agents to probe different spectroscopic characteristics. A separate cohort of U87 GBM models were treated with sorafenib, an anti-angiogenic tyrosine kinase inhibitor, with some animals kept as controls. Sorafenib treatment (0.1 g/kg body weight) began on day 9 following tumor inoculation and was dissolved in dimethylsulfoxide (DMSO) to be delivered via oral gavage. […] Therefore, ^23Na-MRSI with TmDOTP^5− has potential to effectively image the efficacy of cancer drugs."}},
  "note": "“Also recorded” adds a separate entry of the source.",
  "data": [
    {"molecule": "Gd^3+2-[4,7,10-tris(carboxymethyl)-1,4,7,10-tetrazacyclododec-1-yl]acetate [Dotarem]", "values": [
      {"measurement": "^23Na shiftability", "setting": "[1]", "result": "shiftability stronger than the other Gd^3+-based agents with macrocyclic chelates"}
    ]},
    {"molecule": "O=P([O-])([O-])CN1CCN(CP(=O)([O-])[O-])CCN(CP(=O)([O-])[O-])CCN(CP(=O)([O-])[O-])CC1.[Gd+3]", "note": "[GdDOTP^5−]", "values": [
      {"measurement": "broadening potential (sensitivity of linewidth to agent concentration), words", "setting": "[2]", "result": "high broadening potentials; also recorded: comparable broadening potential as TmDOTP^5−"},
      {"measurement": "shiftability (sensitivity of ^23Na chemical shift to agent concentration), words", "setting": "[2]", "result": "without inducing ^23Na shift differences between compartments; also recorded: smaller shiftability"},
      {"measurement": "^23Na line broadening in tumor versus normal tissue", "setting": "[3]; glioma models, after agent infusion", "result": "most prominent within in the tumor; also recorded: considerable linewidth broadening within gliomas; also recorded: larger within the tumor as well compared to healthy tissue"},
      {"measurement": "correlation of tumoral line broadening with increases in ΔNa^+end and decreases in ΔNa^+mem", "setting": "[3]; same rat, gradients from TmDOTP^5− shifts", "result": "correlated well"},
      {"measurement": "BMS contribution to chemical shift", "setting": "[4]", "result": "dominated by BMS effect"}
    ]},
    {"molecule": "CNC(=O)c1cc(Oc2ccc(NC(=O)Nc3ccc(Cl)c(C(F)(F)F)c3)cc2)ccn1", "note": "[sorafenib]", "values": [
      {"measurement": "tumor growth", "setting": "[5]", "result": "slow tumor growth compared to untreated animals"},
      {"measurement": "tumor growth", "setting": "[5]; listed as Sorafenib", "result": "retarded the growth rate of the tumor"},
      {"measurement": "region of alterations in Na^+ distribution (elevated Na b and ΔNa^+end, decreased Na^+e and ΔNa^+mem)", "setting": "[5]; U87, treated vs untreated tumor, ^23Na-MRSI with TmDOTP^5−", "result": "confined to a smaller region for the treated tumor"}
    ]},
    {"molecule": "O=C([O-])CN1CCN(CC(=O)[O-])CCN([C@H](CO)[C@H](O)CO)CCN(CC(=O)[O-])CC1.[Gd+3]", "note": "[Gadavist, Gd^3+2,2′,2″-(10-((2R,3S)-1,3,4-trihydroxybutan-2-yl)-1,4,7,10-tetraazacyclododecane-1,4,7-triyl)triacetate]", "values": [
      {"measurement": "^23Na shiftability", "setting": "[1]", "result": "shiftability stronger than the other Gd^3+-based agents with macrocyclic chelates"}
    ]}
  ]
}
